Assay results reported in PubChem BioAssay (NCI).
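Results reflect a 48-hour exposure of cells in 96-well plates to compound at five concentrations. GI50 = concentration required for 50% inhibition of growth. TGI: total growth inhibition.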

How the values were obtained:
Assay in all cases: NCI-60 cell line screen, 48 h
[1] = tested on: 786-0 renal
[2] = tested on: A498 renal
[3] = tested on: A549 NSCLC
[4] = tested on: ACHN renal
[5] = tested on: BT-549 breast
[6] = tested on: CAKI-1 renal
[7] = tested on: CCRF-CEM leukemia
[8] = tested on: COLO 205 colon
[9] = tested on: DU-145 prostate
[10] = tested on: EKVX NSCLC
[11] = tested on: HCC-2998 colon
[12] = tested on: HCT-15 colon
[13] = tested on: HL-60(TB) leukemia
[14] = tested on: HOP-62 NSCLC
[15] = tested on: HOP-92 NSCLC
[16] = tested on: HS 578T breast
[17] = tested on: HT29 colon
[18] = tested on: IGROV1 ovarian
[19] = tested on: K-562 leukemia
[20] = tested on: KM12 colon
[21] = tested on: LOX IMVI melanoma
[22] = tested on: M14 melanoma
[23] = tested on: MALME-3M melanoma
[24] = tested on: MCF7 breast
[25] = tested on: MDA-MB-231 breast
[26] = tested on: MDA-MB-435
[27] = tested on: MOLT-4 leukemia
[28] = tested on: NCI-H226 lung
[29] = tested on: NCI-H23 lung
[30] = tested on: NCI-H460 lung
[31] = tested on: NCI-H522 lung
[32] = tested on: NCI/ADR-RES ovarian
[33] = tested on: OVCAR-3 ovarian
[34] = tested on: OVCAR-4 ovarian
[35] = tested on: OVCAR-5 ovarian
[36] = tested on: OVCAR-8 ovarian
[37] = tested on: PC-3 prostate
[38] = tested on: RPMI-8226 leukemia
[39] = tested on: RXF 393 renal
[40] = tested on: SF-268 CNS
[41] = tested on: SF-295 CNS
[42] = tested on: SF-539 CNS
[43] = tested on: SK-MEL-2 melanoma
[44] = tested on: SK-MEL-28 melanoma
[45] = tested on: SK-MEL-5 melanoma
[46] = tested on: SK-OV-3 ovarian
[47] = tested on: SN12C renal
[48] = tested on: SNB-19 CNS
[49] = tested on: SNB-75 CNS
[50] = tested on: SR leukemia
[51] = tested on: SW-620 colon
[52] = tested on: T-47D breast
[53] = tested on: TK-10 renal
[54] = tested on: U251 CNS
[55] = tested on: UACC-257 melanoma
[56] = tested on: UACC-62 melanoma
[57] = tested on: UO-31 renal
[58] = tested on: HCT-116 colon

`O=C(/C=C/c1ccc([N+](=O)[O-])cc1)c1cccc(Nc2nc(Nc3ccccc3)nc(Nc3ccccc3)n2)c1` gave a GI50 [1] of 13 µM, a TGI [1] of 43.1 µM and a GI50 [2] of 11.8 µM. The TGI [2] was 28.1 µM, the GI50 [3] was 25 µM and the TGI [3] was > 100 µM. The GI50 [4] was 27 µM, the TGI [4] was > 100 µM and the GI50 [5] was 27 µM. For the same molecule, the TGI [5] was > 100 µM, the GI50 [6] was 25.2 µM and the TGI [6] was > 100 µM. It also gave a GI50 [7] of 3.85 µM, a TGI [7] of 25.6 µM and a GI50 [8] of 13 µM. For the same molecule, the TGI [8] was 61.2 µM, the GI50 [9] was 28.2 µM and the TGI [9] was > 100 µM. The GI50 [10] was 22.3 µM, the TGI [10] was > 100 µM and the GI50 [11] was 18.1 µM. For the same molecule, the TGI [11] was 68.6 µM, the GI50 [12] was 17.7 µM and the TGI [12] was > 100 µM. The GI50 [13] was 8.82 µM, the TGI [13] was 37.7 µM and the GI50 [14] was 32.2 µM. The TGI [14] was > 100 µM, the GI50 [15] was 0.662 µM and the TGI [15] was 8.5 µM. The GI50 [16] was 1.35 µM, the TGI [16] was 5.97 µM and the GI50 [17] was 7.79 µM. The TGI [17] was > 100 µM, the GI50 [18] was 671 nM and the TGI [18] was 63.1 µM. The GI50 [19] was 2.89 µM, the TGI [19] was 28.2 µM and the GI50 [20] was 5.04 µM. It also gave a TGI [20] of 29.5 µM, a GI50 [21] of 11.1 µM and a TGI [21] of 44.6 µM. It also gave a GI50 [22] of 21.6 µM, a TGI [22] of 90.6 µM and a GI50 [23] of 38.8 µM. The TGI [23] was > 100 µM, the GI50 [24] was 1.19 µM and the TGI [24] was 4.21 µM. The GI50 [25] was 10.7 µM, the TGI [25] was 41.9 µM and the GI50 [26] was 20 µM. For the same molecule, the TGI [26] was > 100 µM, the GI50 [27] was 2.6 µM and the TGI [27] was 20 µM. The GI50 [28] was 14.4 µM, the TGI [28] was 44.9 µM and the GI50 [29] was 17.5 µM. It also gave a TGI [29] of 98.3 µM, a GI50 [30] of 9.63 µM and a TGI [30] of 38 µM. For the same molecule, the GI50 [31] was 12.4 µM, the TGI [31] was > 100 µM and the GI50 [32] was 18.2 µM. For the same molecule, the TGI [32] was > 100 µM, the GI50 [33] was 11.3 µM and the TGI [33] was 63.4 µM. The GI50 [34] was 22.1 µM, the TGI [34] was > 100 µM and the GI50 [35] was 51 µM. The TGI [35] was > 100 µM, the GI50 [36] was 14 µM and the TGI [36] was > 100 µM. For the same molecule, the GI50 [37] was 3.15 µM, the TGI [37] was 30.7 µM and the GI50 [38] was 1.66 µM. For the same molecule, the TGI [38] was 6.31 µM, the GI50 [39] was 5.99 µM and the TGI [39] was 30.1 µM. For the same molecule, the GI50 [40] was 17.6 µM, the TGI [40] was > 100 µM and the GI50 [41] was 9.81 µM. For the same molecule, the TGI [41] was > 100 µM, the GI50 [42] was 12.7 µM and the TGI [42] was 35.5 µM. For the same molecule, the GI50 [43] was 17.7 µM, the TGI [43] was 54.6 µM and the GI50 [44] was 12.5 µM. It also gave a TGI [44] of 40.1 µM, a GI50 [45] of 1130 nM and a TGI [45] of 17.6 µM. For the same molecule, the GI50 [46] was 73.8 µM, the TGI [46] was > 100 µM and the GI50 [47] was 26.8 µM. For the same molecule, the TGI [47] was > 100 µM, the GI50 [48] was 79.8 µM and the TGI [48] was > 100 µM. For the same molecule, the GI50 [49] was 4.52 µM, the TGI [49] was 94.8 µM and the GI50 [50] was 484 nM. It also gave a TGI [50] of 6.92 µM, a GI50 [51] of 4.08 µM and a TGI [51] of 65.9 µM. For the same molecule, the GI50 [52] was 9.75 µM, the TGI [52] was > 100 µM and the GI50 [53] was 54.3 µM. The TGI [53] was > 100 µM, the GI50 [54] was 12 µM and the TGI [54] was > 100 µM. The GI50 [55] was 68.7 µM, the TGI [55] was > 100 µM and the GI50 [56] was 21.7 µM. For the same molecule, the TGI [56] was > 100 µM, the GI50 [57] was 2.18 µM and the TGI [57] was > 100 µM.

`O=C1/C(=C\c2ccccc2)C2OCC=C3CN4CCC56c7ccccc7N1C5C2C3CC46` (stereo not given) was tested, and the GI50 [1] was 9.86 µM, the TGI [1] was > 100 µM and the GI50 [2] was 3.56 µM. The TGI [2] was 48 µM, the GI50 [3] was > 100 µM and the TGI [3] was > 100 µM. The GI50 [4] was 7.98 µM, the TGI [4] was > 100 µM and the GI50 [5] was 34.2 µM. The TGI [5] was > 100 µM, the GI50 [6] was 2.18 µM and the TGI [6] was 32.1 µM. For the same molecule, the GI50 [7] was 6.06 µM, the TGI [7] was > 100 µM and the GI50 [8] was 17.3 µM. For the same molecule, the TGI [8] was > 100 µM, the GI50 [9] was > 100 µM and the TGI [9] was > 100 µM. The GI50 [10] was 70.5 µM, the TGI [10] was > 100 µM and the GI50 [11] was 4.93 µM. For the same molecule, the TGI [11] was > 100 µM, the GI50 [58] was 6 µM and the TGI [58] was > 100 µM. The GI50 [12] was 7.77 µM, the TGI [12] was > 100 µM and the GI50 [13] was 3.47 µM. The TGI [13] was 20.9 µM, the GI50 [14] was 54.3 µM and the TGI [14] was > 100 µM. It also gave a GI50 [15] of 6.27 µM, a TGI [15] of 86.8 µM and a GI50 [16] of 62.5 µM. The TGI [16] was > 100 µM, the GI50 [17] was 2.07 µM and the TGI [17] was 5.37 µM. For the same molecule, the GI50 [18] was 4690 nM, the TGI [18] was > 100 µM and the GI50 [19] was 3.33 µM. For the same molecule, the TGI [19] was > 100 µM, the GI50 [20] was 34.4 µM and the TGI [20] was > 100 µM. For the same molecule, the GI50 [21] was 4.9 µM, the TGI [21] was 49.8 µM and the GI50 [22] was 1.94 µM. The TGI [22] was 3.72 µM, the GI50 [23] was 4.67 µM and the TGI [23] was 17.9 µM. For the same molecule, the GI50 [24] was 5.2 µM, the TGI [24] was > 100 µM and the GI50 [25] was 6.92 µM. The TGI [25] was > 100 µM, the GI50 [26] was 3.59 µM and the TGI [26] was > 100 µM. For the same molecule, the GI50 [27] was 7.23 µM, the TGI [27] was > 100 µM and the GI50 [28] was 11.3 µM. The TGI [28] was > 100 µM, the GI50 [29] was > 100 µM and the TGI [29] was > 100 µM. For the same molecule, the GI50 [30] was 6.4 µM, the TGI [30] was > 100 µM and the GI50 [31] was 8.01 µM. For the same molecule, the TGI [31] was > 100 µM, the GI50 [32] was > 100 µM and the TGI [32] was > 100 µM. The GI50 [33] was 36.5 µM, the TGI [33] was > 100 µM and the GI50 [34] was > 100 µM. For the same molecule, the TGI [34] was > 100 µM, the GI50 [35] was > 100 µM and the TGI [35] was > 100 µM. For the same molecule, the GI50 [36] was 85.8 µM, the TGI [36] was > 100 µM and the GI50 [37] was 18 µM. The TGI [37] was > 100 µM, the GI50 [38] was 5.54 µM and the TGI [38] was > 100 µM. The GI50 [39] was 35.8 µM, the TGI [39] was > 100 µM and the GI50 [40] was 79.3 µM. The TGI [40] was > 100 µM, the GI50 [41] was 3.69 µM and the TGI [41] was 24.7 µM. For the same molecule, the GI50 [42] was 61.9 µM, the TGI [42] was > 100 µM and the GI50 [43] was 3.78 µM. For the same molecule, the TGI [43] was 18.4 µM, the GI50 [44] was 2.61 µM and the TGI [44] was 5.44 µM. For the same molecule, the GI50 [45] was 4840 nM, the TGI [45] was 17.4 µM and the GI50 [46] was > 100 µM. For the same molecule, the TGI [46] was > 100 µM, the GI50 [47] was 26.2 µM and the TGI [47] was > 100 µM. The GI50 [48] was > 100 µM, the TGI [48] was > 100 µM and the GI50 [49] was 14.7 µM. For the same molecule, the TGI [49] was > 100 µM, the GI50 [50] was 2650 nM and the TGI [50] was 8.76 µM. For the same molecule, the GI50 [51] was > 100 µM, the TGI [51] was > 100 µM and the GI50 [52] was 64.8 µM. For the same molecule, the TGI [52] was > 100 µM, the GI50 [53] was 7.23 µM and the TGI [53] was 73.3 µM. For the same molecule, the GI50 [54] was 13.1 µM, the TGI [54] was > 100 µM and the GI50 [55] was 2.16 µM. For the same molecule, the TGI [55] was 4.11 µM, the GI50 [56] was 1.83 µM and the TGI [56] was 4.06 µM. For the same molecule, the GI50 [57] was 4.04 µM and the TGI [57] was > 100 µM.
